Like-named read-outs stand apart in the source and are kept apart here. Square brackets hold non-standard residues; d marks the D form. Primed or numbered codes have the meaning given here. Ends that are not written are not given here. Peptide text beside a SMILES is read from it. Gla′ = gamma-carboxyglutamate (g in names)
Key:
[1] = test system: NMDA receptor; assay type: binding, rat
[2] = molecular target: T1, NMDA receptor (Rattus norvegicus, UniProt P35439+Q00960); assay: biochemical; assay type: binding
T1 construct: other: test compound in the absence of spermine; concentration at 50% of maximum stimulation; % Sti; spermine = 100; other: with and without spermine; absence of spermine; % STI; absence

[3] = read-out: IC50, inhibition of spermine-enhanced [3H]MK-801 binding

T1 sequence (Q00960 27-1482, other chains not shown): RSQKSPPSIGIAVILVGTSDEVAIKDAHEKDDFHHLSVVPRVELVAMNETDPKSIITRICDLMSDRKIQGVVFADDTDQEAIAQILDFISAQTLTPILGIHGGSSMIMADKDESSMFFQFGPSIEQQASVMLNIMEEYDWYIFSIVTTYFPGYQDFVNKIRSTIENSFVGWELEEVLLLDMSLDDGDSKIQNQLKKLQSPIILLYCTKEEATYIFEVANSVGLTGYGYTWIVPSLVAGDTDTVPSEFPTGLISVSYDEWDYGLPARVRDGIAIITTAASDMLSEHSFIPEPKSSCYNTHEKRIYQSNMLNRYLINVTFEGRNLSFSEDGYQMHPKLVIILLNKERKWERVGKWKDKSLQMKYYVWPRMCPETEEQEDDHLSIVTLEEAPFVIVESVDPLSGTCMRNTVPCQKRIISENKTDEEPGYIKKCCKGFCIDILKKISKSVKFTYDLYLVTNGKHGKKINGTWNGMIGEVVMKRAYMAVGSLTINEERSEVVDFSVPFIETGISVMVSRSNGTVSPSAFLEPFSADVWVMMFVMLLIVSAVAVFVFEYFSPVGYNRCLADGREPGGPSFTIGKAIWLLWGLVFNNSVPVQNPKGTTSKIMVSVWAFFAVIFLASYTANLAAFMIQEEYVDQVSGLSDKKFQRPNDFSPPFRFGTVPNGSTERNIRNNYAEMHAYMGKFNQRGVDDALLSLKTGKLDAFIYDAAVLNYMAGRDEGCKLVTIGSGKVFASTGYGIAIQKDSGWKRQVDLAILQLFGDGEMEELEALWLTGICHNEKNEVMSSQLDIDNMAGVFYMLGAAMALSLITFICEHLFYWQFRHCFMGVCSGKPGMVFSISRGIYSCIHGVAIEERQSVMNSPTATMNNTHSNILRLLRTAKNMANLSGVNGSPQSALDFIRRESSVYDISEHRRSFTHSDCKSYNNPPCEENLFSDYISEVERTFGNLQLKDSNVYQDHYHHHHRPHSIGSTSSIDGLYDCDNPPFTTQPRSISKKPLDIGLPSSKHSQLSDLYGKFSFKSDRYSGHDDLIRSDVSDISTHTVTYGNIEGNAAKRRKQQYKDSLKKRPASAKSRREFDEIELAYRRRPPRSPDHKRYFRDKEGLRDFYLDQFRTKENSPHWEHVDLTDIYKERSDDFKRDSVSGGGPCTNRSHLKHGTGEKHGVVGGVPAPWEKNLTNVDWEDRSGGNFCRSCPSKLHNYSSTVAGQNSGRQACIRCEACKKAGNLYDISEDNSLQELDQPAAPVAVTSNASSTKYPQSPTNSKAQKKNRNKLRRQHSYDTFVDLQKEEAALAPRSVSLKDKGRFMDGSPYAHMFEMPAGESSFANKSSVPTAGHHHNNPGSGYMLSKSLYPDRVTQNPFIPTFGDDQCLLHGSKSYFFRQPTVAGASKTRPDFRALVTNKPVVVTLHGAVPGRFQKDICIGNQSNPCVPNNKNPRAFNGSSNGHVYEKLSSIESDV

CC[C@H](C)[C@H](NC(=O)[C@H](CCC(N)=O)NC(=O)[C@H](CO)NC(=O)[C@@H](NC(=O)[C@H](CC(N)=O)NC(=O)[C@H](CO)NC(=O)[C@H](CCC(N)=O)NC(=O)[C@H](CC(C)C)NC(=O)[C@H](CC(C(=O)O)C(=O)O)NC(=O)[C@H](CC(C(=O)O)C(=O)O)NC(=O)[C@H](CCC(=O)O)NC(=O)CN)C(C)C)C(=O)N[C@@H](CCCNC(=N)N)C(=O)N[C@@H](C)C(=O)N[C@@H](CCCCN)C(=O)N[C@@H](CO)C(=O)N[C@@H](CC(N)=O)C(N)=O [310 helix ConG] (HELM PEPTIDE1{G.E.[O=C(O)C(C[C@H](N[*:1])C(=O)[*:2])C(=O)O].[O=C(O)C(C[C@H](N[*:1])C(=O)[*:2])C(=O)O].L.Q.S.N.V.S.Q.I.R.A.K.S.N.[am]}$$$$V2.0)
% Inh [1]: 25%
IC50 ([1]; read-out: Spermine IC): 20000 nM
Emax ([2]; read-out: % Sti): 0%

CC[C@H](C)[C@H](NC(=O)[C@H](CC(C)C)NC(=O)[C@H](C)NC(=O)[C@H](CCC(N)=O)NC(=O)[C@H](CC(N)=O)NC(=O)[C@H](CC(C(=O)O)C(=O)O)NC(=O)[C@H](CCC(N)=O)NC(=O)[C@H](CC(C)C)NC(=O)[C@H](CC(C(=O)O)C(=O)O)NC(=O)[C@H](CC(C(=O)O)C(=O)O)NC(=O)[C@H](CCC(=O)O)NC(=O)CN)C(=O)N[C@@H](CCCNC(=N)N)C(=O)N[C@@H](CC(C(=O)O)C(=O)O)C(=O)N[C@@H](CCCCN)C(=O)N[C@@H](CO)C(=O)N[C@@H](CC(N)=O)C(N)=O [Ala10-Con-G, GEggLQgNQALIRgKSN]
% Inh [1]: 100%
IC50 ([1]; read-out: Spermine IC): 1100 ± 300 nM
Emax ([2]; read-out: % Sti): 0%

CC[C@H](C)[C@H](NC(=O)[C@H](CC(C)C)NC(=O)[C@H](CC(C(=O)O)C(=O)O)NC(=O)[C@H](CCC(N)=O)NC(=O)[C@H](CC(N)=O)NC(=O)[C@H](CC(C(=O)O)C(=O)O)NC(=O)[C@H](CCC(N)=O)NC(=O)[C@H](CC(C)C)NC(=O)[C@H](CC(C(=O)O)C(=O)O)NC(=O)[C@H](CC(C(=O)O)C(=O)O)NC(=O)[C@H](CCC(=O)O)NC(=O)CNC(=O)[C@@H](N)CC(=O)N[C@@H]1O[C@H](CO)[C@@H](O)[C@H](O)[C@H]1NC(C)=O)C(=O)N[C@@H](CCCNC(=N)N)C(=O)N[C@@H](CC(C(=O)O)C(=O)O)C(=O)N[C@@H](CCCCN)C(=O)N[C@@H](CO)C(=O)N[C@@H](CC(N)=O)C(N)=O [Asn(GlcNAc)^o-Con-G, N(GlcOc)-GEggLQgNQgLIRgKSN]
% Inh [1]: 38%
IC50 ([1]; read-out: Spermine IC): 8800 nM
% Sti ([2]; forebrain membranes): 0%

CC[C@H](C)[C@H](NC(=O)[C@H](CC(C)C)NC(=O)[C@@H](CCC(=O)O)NC(=O)[C@H](CCC(N)=O)NC(=O)[C@H](CC(N)=O)NC(=O)[C@@H](CCC(=O)O)NC(=O)[C@H](CCC(N)=O)NC(=O)[C@H](CC(C)C)NC(=O)[C@@H](CCC(=O)O)NC(=O)[C@@H](CCC(=O)O)NC(=O)[C@@H](CCC(=O)O)NC(=O)CN)C(=O)N[C@@H](CCCNC(=N)N)C(=O)N[C@H](CCC(=O)O)C(=O)N[C@@H](CCCCN)C(=O)N[C@@H](CO)C(=O)N[C@@H](CC(N)=O)C(N)=O [D-Glu3,4,7,10,14-Con-G, GdEdEdELQdENQdELIRdEKSN]
% Inh [1]: 0%
inhibition of spermine-induced [3H]MK-801 binding [1]: no inhibition
stimulation of [3H]MK-801 binding in the absence of spermine [2]: stimulated
Emax ([2]; read-out: % Sti): 30%

CC[C@H](C)[C@H](NC(=O)[C@H](CC(C)C)NC(=O)[C@H](CCC(=O)O)NC(=O)[C@H](CCC(N)=O)NC(=O)[C@H](CC(N)=O)NC(=O)[C@H](CCC(=O)O)NC(=O)[C@H](CCC(N)=O)NC(=O)[C@H](CC(C)C)NC(=O)[C@H](CCC(=O)O)NC(=O)[C@H](CCC(=O)O)NC(=O)[C@H](CCC(=O)O)NC(=O)CN)C(=O)N[C@@H](CCCNC(=N)N)C(=O)N[C@@H](CCC(=O)O)C(=O)N[C@@H](CCCCN)C(=O)N[C@@H](CO)C(=O)N[C@@H](CC(N)=O)C(N)=O [Glu3,4,7,10,14-Con-G]
% INH [1]: 22%
% Inh [1]: 22%
IC50 ([1]; read-out: IC50): 8500 nM
IC50 ([1]; read-out: Spermine IC): 8500 nM
Emax ([2]; read-out: % STI): 79%
Emax ([2]; read-out: % Sti): 79%

CC[C@H](C)[C@H](N)C(=O)N[C@@H](CCCNC(=N)N)C(=O)N[C@@H](CCC(=O)O)C(=O)N[C@@H](CCCCN)C(=O)N[C@@H](CO)C(=O)N[C@@H](CC(N)=O)C(N)=O [Glul4-Con-G(12-17), IREKSN]
% Inh [1]: 0%
inhibition of spermine-induced [3H]MK-801 binding [1]: no inhibition
stimulation of [3H]MK-801 binding in the absence of spermine [2]: stimulated
Emax ([2]; read-out: % Sti): 30%

CC[C@H](C)[C@H](NC(=O)[C@H](CC(C)C)NC(=O)[C@H](CO)NC(=O)[C@H](CCC(N)=O)NC(=O)[C@H](CC(N)=O)NC(=O)[C@H](CC(C(=O)O)C(=O)O)NC(=O)[C@H](CCC(N)=O)NC(=O)[C@H](CC(C)C)NC(=O)[C@H](CC(C(=O)O)C(=O)O)NC(=O)[C@H](CC(C(=O)O)C(=O)O)NC(=O)[C@H](CCC(=O)O)NC(=O)CN)C(=O)N[C@@H](CCCNC(=N)N)C(=O)N[C@@H](CC(C(=O)O)C(=O)O)C(=O)N[C@@H](CCCCN)C(=O)N[C@@H](CO)C(=O)N[C@@H](CC(N)=O)C(N)=O [Ser10-Con-G, GEggLQgNQSLIRgKSN]
% Inh [1]: 100%
IC50 ([1]; read-out: Spermine IC): 1800 ± 200 nM
Emax ([2]; read-out: % Sti): 0%

CC[C@H](C)[C@H](NC(=O)[C@H](CC(C)C)NC(=O)[C@H](CC(C(=O)O)C(=O)O)NC(=O)[C@H](CCC(N)=O)NC(=O)[C@H](CC(N)=O)NC(=O)[C@H](CC(C(=O)O)C(=O)O)NC(=O)[C@H](CCC(N)=O)NC(=O)[C@H](CC(C)C)NC(=O)[C@H](CC(C(=O)O)C(=O)O)NC(=O)[C@H](COP(=O)(O)O)NC(=O)[C@H](CCC(=O)O)NC(=O)CN)C(=O)N[C@@H](CCCNC(=N)N)C(=O)N[C@@H](CC(C(=O)O)C(=O)O)C(=O)N[C@@H](CCCCN)C(=O)N[C@@H](CO)C(=O)N[C@@H](CC(N)=O)C(N)=O [Ser(p)3-Con-G, GES(p)gLQgNQgLJRgKSN]
% INH [1]: 34 ± 2.3%
% Inh [1]: 34 ± 2.3%
% STI ([2]; forebrain membranes): 68 ± 8.4%
% Sti ([2]; forebrain membranes): 68 ± 8.4%

CC[C@H](C)[C@H](NC(=O)[C@H](CC(C)C)NC(=O)[C@H](CC(C(=O)O)C(=O)O)NC(=O)[C@H](CCC(N)=O)NC(=O)[C@H](CC(N)=O)NC(=O)[C@H](COP(=O)(O)O)NC(=O)[C@H](CCC(N)=O)NC(=O)[C@H](CC(C)C)NC(=O)[C@H](CC(C(=O)O)C(=O)O)NC(=O)[C@H](CC(C(=O)O)C(=O)O)NC(=O)[C@H](CCC(=O)O)NC(=O)CN)C(=O)N[C@@H](CCCNC(=N)N)C(=O)N[C@@H](CC(C(=O)O)C(=O)O)C(=O)N[C@@H](CCCCN)C(=O)N[C@@H](CO)C(=O)N[C@@H](CC(N)=O)C(N)=O [Ser(p)7-Con-G, GEggLQS(p)NQgLIRgKSN]
% Inh [1]: 50±3.8%
inhibition of [3H]MK-801 binding produced by maximally effective spermine [1]: 50%
IC50 [1, 3]: 1040 ± 300 nM
% Sti ([2]; forebrain membranes): 0%

CC[C@H](C)[C@H](NC(=O)[C@H](CC(C)C)NC(=O)[C@H](COP(=O)(O)O)NC(=O)[C@H](CCC(N)=O)NC(=O)[C@H](CC(N)=O)NC(=O)[C@H](CC(C(=O)O)C(=O)O)NC(=O)[C@H](CCC(N)=O)NC(=O)[C@H](CC(C)C)NC(=O)[C@H](CC(C(=O)O)C(=O)O)NC(=O)[C@H](CC(C(=O)O)C(=O)O)NC(=O)[C@H](CCC(=O)O)NC(=O)CN)C(=O)N[C@@H](CCCNC(=N)N)C(=O)N[C@@H](CC(C(=O)O)C(=O)O)C(=O)N[C@@H](CCCCN)C(=O)N[C@@H](CO)C(=O)N[C@@H](CC(N)=O)C(N)=O [Ser(p)10-Con-G, GEggLQgNQS(p)LIRgKSN]
% Inh [1]: 100%
IC50 [1, 3]: 560 ± 200 nM
% Sti ([2]; forebrain membranes): 0%

CC[C@H](C)[C@H](NC(=O)[C@H](CC(C)C)NC(=O)[C@H](CC(C(=O)O)C(=O)O)NC(=O)[C@H](CCC(N)=O)NC(=O)[C@H](CC(N)=O)NC(=O)[C@H](CC(C(=O)O)C(=O)O)NC(=O)[C@H](CCC(N)=O)NC(=O)[C@H](CC(C)C)NC(=O)[C@H](CC(C(=O)O)C(=O)O)NC(=O)[C@H](CC(C(=O)O)C(=O)O)NC(=O)[C@H](CCC(=O)O)NC(=O)CN)C(=O)N[C@@H](CCCNC(=N)N)C(=O)N[C@@H](COP(=O)(O)O)C(=O)N[C@@H](CCCCN)C(=O)N[C@@H](CO)C(=O)N[C@@H](CC(N)=O)C(N)=O [Ser(p)14-Con-G, GEggLQgNQgLIRS(p)KSN]
% Inh [1]: 31 ± 0.5%
inhibition of [3H]MK-801 binding produced by maximally effective spermine [1]: 31%
IC50 [1, 3]: 1120 ± 50 nM
% Sti ([2]; forebrain membranes): 0%

NCCCCNCCCN [Spermidine, reference compound]
% Inh [1]: 0%
Emax ([2]; read-out: % Sti): 97%

NCCCNCCCCNCCCN [Spermine, reference compound]
% Inh [1]: 0%
% Sti ([2]; forebrain membranes): 100%

GEggL-AA-gKSN (GEXXLAAXKSN; gamma-carboxyglutamate residues) [ConG(1-5)AA(14-17)]
% Sti [2]: 0%

GEggL-AAA-gKSN (GEXXLAAAXKSN; gamma-carboxyglutamate residues) [ConG(1-5)AAAA(14-17)]
% Sti [2]: 0%

GEggL-BB-gKSN [ConG(1-5)BB(14-17)]
% Sti [2]: 0%

GEggL-GG-gKSN (GEXXLGGXKSN; gamma-carboxyglutamate residues) [ConG(1-5)GG(14-17)]
% Sti [2]: 0%

GEggL-GGGG-gKSN (GEXXLGGGGXKSN; gamma-carboxyglutamate residues) [ConG(1-5)GGGG(14-17)]
% Sti [2]: 0%

GEggL-cyclic (GEXXL; cyclic; gamma-carboxyglutamate residues) [Cyclic ConG(1-5)]
activity in [3H]MK-801 binding (spanning cell of Table II) [2]: inactive

GEggLQ-AAAAA-gKSN (GE[Gla′][Gla′]LQAAAAA[Gla′]KSN) [ConG(1-6)AS(14-17)]
% Sti [2]: 0%

GEggLQ-AAAAAAA-gKSN (GE[Gla′][Gla′]LQAAAAAAA[Gla′]KSN) [ConG(1-6)A7(14-17)]
% Sti [2]: 0%

IAEASN [Ala13,15, Glul4-Con-G(12-17)]
activity in [3H]MK-801 binding (spanning cell of Table II) [2]: inactive

IAEKSN [Ala13, Glul4-Con-G(12-17)]
activity in [3H]MK-801 binding (spanning cell of Table II) [2]: inactive

IREASN [Glu 14, Alal5-Con-G(12-17)]
activity in [3H]MK-801 binding (spanning cell of Table II) [2]: inactive

RSgNK (RS[Gla′]NK) [scrambled Con-G]
activity in [3H]MK-801 binding (spanning cell of Table II) [2]: inactive

RgKSN (R[Gla′]KSN) [Con-G(13-17)]
activity in [3H]MK-801 binding (spanning cell of Table II) [2]: inactive
